Data taken from ChEMBL document CHEMBL1795319, “Design, synthesis and antifungal evaluation of 1-(2-(2,4-difluorophenyl)-2-hydroxy-3-(1H-1,2,4-triazol-1-yl)propyl)-1H-1,2,4-triazol-5(4H)-one” (2011).
≈ marks a conversion by molar mass, not a printed value.

What was measured:
Format in all cases: functional
Candida albicans [1] = test: Antifungal activity against Candida albicans SC5314 after 24 hrs by micro-broth dilution method; conditions: SC5314, 24 h
Candida albicans [2] = test: Antifungal activity against Candida albicans Y0109 after 24 hrs by micro-broth dilution method; conditions: Y0109, 24 h
Candida tropicalis = test: Antifungal activity against Candida tropicalis by micro-broth dilution method
Candida parapsilosis = test: Antifungal activity against Candida parapsilosis by micro-broth dilution method; conditions: Lodderomyces parapsilosis
Kluyveromyces marxianus = test: Antifungal activity against Candida kefyr by micro-broth dilution method
Cryptococcus neoformans = test: Antifungal activity against Cryptococcus neoformans BLS108 after 72 hrs by micro-broth dilution method; conditions: BLS108, 72 h
Trichophyton rubrum = test: Antifungal activity against Trichophyton rubrum by micro-broth dilution method
Aspergillus fumigatus = test: Antifungal activity against Aspergillus fumigatus by broth microdilution method

**Q.** For `CCCCCCC(=O)Nc1ccc(-n2cnn(CC(O)(Cn3cncn3)c3ccc(F)cc3F)c2=O)cc1` (racemic), which MIC80 (Candida albicans [1]) is on record?
**A.** Its MIC80 is 3.9 ng/mL (≈ 0.00742 µM).

**Q.** And the MIC80 (Candida albicans [2])?
**A.** The MIC80 was 0.0625 µg/mL (≈ 0.119 µM).

**Q.** And the MIC80 (Candida tropicalis)?
**A.** The MIC80 was 64 µg/mL (≈ 122 µM).

**Q.** What about the MIC80 (Candida parapsilosis) of the same compound?
**A.** The MIC80 was 1 µg/mL (≈ 1.9 µM).

**Q.** And the MIC80 (Kluyveromyces marxianus)?
**A.** The MIC80 was 1 µg/mL (≈ 1.9 µM).

**Q.** What about the MIC80 (Cryptococcus neoformans) of the same compound?
**A.** The MIC80 was 0.0625 µg/mL (≈ 0.119 µM).

**Q.** What about the MIC80 (Trichophyton rubrum) of the same compound?
**A.** The MIC80 was 64 µg/mL (≈ 122 µM).

**Q.** What about the MIC80 (Aspergillus fumigatus) of the same compound?
**A.** Its MIC80 is over 64 µg/mL.
